The text below walks through data of patent publication US20120328569A1, “INHIBITORS OF HEPATITIS C VIRUS NS5B POLYMERASE” (priority 2010, published 2012).

This assay relates to HCV genotype 1b replicon. Kind of assay: HCV replicon assay, cell ELISA with antibody to replicon-encoded NS3/4A (genotype 1b replicon). The assay is classed as cell-based, hepatitis C virus. Conditions: Hepatitis C virus, 96 h, read-out: Replicon 1b IC50 (nM), HCV genotype 1b replicon cells, 96 hours incubation, NS3/4A ELISA readout. In outline: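 Replicon-harbouring cells carrying neomycin phosphotransferase were incubated 96 h with a compound dilution series without G418. Replication was quantified indirectly by a cell ELISA detecting replicon-encoded NS3/4A. IC50 values were calculated relative to DMSO control with a four-parameter fit.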
(In general: A replicon is a self-replicating genome or part of one, used to study replication in cells.)
`CNC(=O)c1c(-c2ccc(F)cc2)oc2cc(N(C)S(C)(=O)=O)c(-c3cc(F)c(OC)c(-c4nc5ccccc5o4)c3)cc12` [Example 181]: the IC50 stood at 5.7 nM.
The figure for `CNC(=O)c1c(-c2ccc(F)cc2)oc2cc(N(C)S(C)(=O)=O)c(-c3cc(OC)c(OC)c(-c4nc5ccccc5o4)c3)cc12` [Example 182] is 2.3 nM; for `CNC(=O)c1c(-c2ccc(F)cc2)oc2cc(N(C)S(C)(=O)=O)c(-c3ccc(OC)c(-c4nc5ccccc5o4)c3)cc12` [Example 183] it is 1.5 nM.
The figure for `CNC(=O)c1c(-c2ccc(F)cc2)oc2cc(N(C)S(C)(=O)=O)c(-c3ccc(OC)c(-c4nc5ccc(F)cc5o4)c3)cc12` [Example 185] is 2.2 nM; for `CNC(=O)c1c(-c2ccc(F)cc2)oc2cc(N(C)S(C)(=O)=O)c(-c3ccc(OC)c(-c4nc5cccc(F)c5o4)c3)cc12` [Example 186] it is 2 nM; for `CNC(=O)c1c(-c2ccc(F)cc2)oc2cc(N(C)S(C)(=O)=O)c(-c3ccc(OC)c(-c4nc5cc(Cl)ccc5o4)c3)cc12` [Example 187] it is 2.6 nM.
The value for `CNC(=O)c1c(-c2ccc(F)cc2)oc2cc(N(C)S(C)(=O)=O)c(-c3ccc(OC)c(-c4nc5ccc(Cl)cc5o4)c3)cc12` [Example 188] was 5.1 nM.
Regarding `CNC(=O)c1c(-c2ccc(F)cc2)oc2cc(N(C)S(C)(=O)=O)c(-c3ccc(OC)c(-c4nc5cccc(Cl)c5o4)c3)cc12` [Example 189], the IC50 worked out at 1.9 nM.
The figure for `CNC(=O)c1c(-c2ccc(F)cc2)oc2cc(N(C)S(C)(=O)=O)c(-c3ccc(OC)c(-c4nc5c(C)cccc5o4)c3)cc12` [Example 190] is 2.2 nM; for `CNC(=O)c1c(-c2ccc(F)cc2)oc2cc(N(C)S(C)(=O)=O)c(-c3ccc(OC)c(-c4nc5ccc(C)cc5o4)c3)cc12` [Example 191] it is 4.1 nM; for `CNC(=O)c1c(-c2ccc(F)cc2)oc2cc(N(C)S(C)(=O)=O)c(-c3ccc(OC)c(-c4nc5cccc(C)c5o4)c3)cc12` [Example 192] it is 1.9 nM.
The figure for `CNC(=O)c1c(-c2ccc(F)cc2)oc2cc(N(C)S(C)(=O)=O)c(-c3ccc(OC(C)C)c(-c4nc5ccccc5o4)c3)cc12` [Example 193] is 11.6 nM; for `CNC(=O)c1c(-c2ccc(F)cc2)oc2cc(N(C)S(C)(=O)=O)c(-c3cc(F)c(F)c(-c4nc5ccccc5o4)c3)cc12` [Example 194] it is 4.2 nM.
The figure for `CNC(=O)c1c(-c2ccc(F)cc2)oc2cc(N(C)S(C)(=O)=O)c(-c3cc(F)cc(-c4nc5ncccc5o4)c3)cc12` [Example 198] is 1.4 nM; for `CNC(=O)c1c(-c2ccc(F)cc2)oc2cc(N(C)S(C)(=O)=O)c(-c3cc(F)cc(-c4nc5ncc(Cl)cc5o4)c3)cc12` [Example 199] it is 2.9 nM; for `CNC(=O)c1c(-c2ccc(F)cc2)oc2cc(N(C)S(C)(=O)=O)c(-c3ccc(F)c(-c4nc5ncccc5o4)c3)cc12` [Example 200] it is 1.6 nM.
On to `CNC(=O)c1c(-c2ccc(F)cc2)oc2cc(N(C)S(C)(=O)=O)c(-c3cccc(-c4nc5ncc(F)cc5o4)c3)cc12` [Example 201], for which the IC50 worked out at 1.7 nM.
For `CNC(=O)c1c(-c2ccc(F)cc2)oc2cc(N(C)S(C)(=O)=O)c(-c3cccc(-c4nc5ncc(Cl)cc5o4)c3)cc12` [Example 202], the IC50 was found to be 1 nM.
The value for `CNC(=O)c1c(-c2ccc(F)cc2)oc2cc(N(C)S(C)(=O)=O)c(-c3cc(Cl)cc(-c4nc5ncccc5o4)c3)cc12` [Example 203] was 2.4 nM; that for `CNC(=O)c1c(-c2ccc(F)cc2)oc2cc(N(C)S(C)(=O)=O)c(-c3cc(-c4nc5ncccc5o4)ccc3Cl)cc12` [Example 204] was 4.5 nM; that for `CNC(=O)c1c(-c2ccc(F)cc2)oc2cc(N(C)S(C)(=O)=O)c(-c3cccc(-c4nc5ncccc5o4)c3OC)cc12` [Example 205] was 11.9 nM.
The figure for `CNC(=O)c1c(-c2ccc(F)cc2)oc2cc(N(C)S(C)(=O)=O)c(-c3ccc(OC(F)(F)F)c(-c4nc5ncccc5o4)c3)cc12` [Example 206] is 2.1 nM; for `CNC(=O)c1c(-c2ccc(F)cc2)oc2cc(N(C)S(C)(=O)=O)c(-c3cc(-c4nc5ncccc5o4)c(OC)cc3F)cc12` [Example 207] it is 2.4 nM.
As for `CNC(=O)c1c(-c2ccc(F)cc2)oc2cc(N(C)S(C)(=O)=O)c(-c3ccc(C)c(-c4nc5ncccc5o4)c3)cc12` [Example 208], the IC50 worked out at 1.8 nM.
The figure for `CNC(=O)c1c(-c2ccc(F)cc2)oc2cc(N(C)S(C)(=O)=O)c(-c3cc(C#N)cc(-c4nc5ncccc5o4)c3)cc12` [Example 209] is 5.5 nM; for `CNC(=O)c1c(-c2ccc(F)cc2)oc2cc(N(C)S(C)(=O)=O)c(-c3cc(C)cc(-c4nc5ncccc5o4)c3)cc12` [Example 210] it is 1.9 nM.
The figure for `CNC(=O)c1c(-c2ccc(F)cc2)oc2cc(N(C)S(C)(=O)=O)c(-c3cccc(-c4nc5cnccc5o4)c3)cc12` [Example 211] is 3.3 nM.
The value for `CNC(=O)c1c(-c2ccc(F)cc2)oc2cc(N(C)S(C)(=O)=O)c(-c3cc(F)cc(-c4nc5cnccc5o4)c3)cc12` [Example 212] was 2.6 nM; that for `CNC(=O)c1c(-c2ccc(F)cc2)oc2cc(N(C)S(C)(=O)=O)c(-c3ccc(F)c(-c4nc5cnccc5o4)c3)cc12` [Example 213] was 2.5 nM; that for `CNC(=O)c1c(-c2ccc(F)cc2)oc2cc(N(C)S(C)(=O)=O)c(-c3cc(-c4nc5cnccc5o4)ccc3F)cc12` [Example 214] was 6.3 nM.
`CNC(=O)c1c(-c2ccc(F)cc2)oc2cc(N(C)S(C)(=O)=O)c(-c3ccc(Cl)c(-c4nc5cnccc5o4)c3)cc12` [Example 215]: the IC50 was 2.1 nM.
The value for `CNC(=O)c1c(-c2ccc(F)cc2)oc2cc(N(C)S(C)(=O)=O)c(-c3cccc(-c4nc5ccncc5o4)c3)cc12` [Example 216] was 8.2 nM.
The figure for `CNC(=O)c1c(-c2ccc(F)cc2)oc2cc(N(C)S(C)(=O)=O)c(-c3cccc(-c4nc5cccnc5o4)c3)cc12` [Example 217] is 2.1 nM; for `CNC(=O)c1c(-c2ccc(F)cc2)oc2cc(N(C)S(C)(=O)=O)c(-c3cc(F)cc(-c4nc5cccnc5o4)c3)cc12` [Example 218] it is 1.8 nM; for `CNC(=O)c1c(-c2ccc(F)cc2)oc2cc(N(C)S(C)(=O)=O)c(-c3cc(F)cc(-c4nc5cc(Cl)cnc5o4)c3)cc12` [Example 219] it is 3 nM.
For `CNC(=O)c1c(-c2ccc(F)cc2)oc2cc(N(C)S(C)(=O)=O)c(-c3cc(F)cc(-c4nc5cc(F)cnc5o4)c3)cc12` [Example 220], the IC50 was found to be 1.5 nM.
As for `CNC(=O)c1c(-c2ccc(F)cc2)oc2cc(N(C)S(C)(=O)=O)c(-c3ccc(F)c(-c4nc5cccnc5o4)c3)cc12` [Example 221], the IC50 was determined as 1.7 nM.
As to `CNC(=O)c1c(-c2ccc(F)cc2)oc2cc(N(C)S(C)(=O)=O)c(-c3cc(-c4nc5cccnc5o4)ccc3F)cc12` [Example 222], the IC50 stood at 3.5 nM.
As to `CNC(=O)c1c(-c2ccc(F)cc2)oc2cc(N(C)S(C)(=O)=O)c(-c3cccc(-c4nc5cc(Cl)cnc5o4)c3)cc12` [Example 223], the IC50 stood at 10 nM.
The figure for `CNC(=O)c1c(-c2ccc(F)cc2)oc2cc(N(C)S(C)(=O)=O)c(-c3cccc(-c4nc5cc(F)cnc5o4)c3)cc12` [Example 224] is 2.3 nM.
The value for `CNC(=O)c1c(-c2ccc(F)cc2)oc2cc(N(C)S(C)(=O)=O)c(-c3ccc(OC)c(-c4nc5cccnc5o4)c3)cc12` [Example 225] was 3.6 nM; that for `CNC(=O)c1c(-c2ccc(F)cc2)oc2cc(N(C)S(C)(=O)=O)c(-c3ccc(OC)c(-c4nc5cc(Cl)cnc5o4)c3)cc12` [Example 226] was 4 nM; that for `CNC(=O)c1c(-c2ccc(F)cc2)oc2cc(N(C)S(C)(=O)=O)c(-c3ccc(OC)c(-c4nc5cc(F)cnc5o4)c3)cc12` [Example 227] was 2.2 nM.
`CNC(=O)c1c(-c2ccc(F)cc2)oc2cc(N(C)S(C)(=O)=O)c(-c3ccc(Cl)c(-c4nc5cccnc5o4)c3)cc12` [Example 228]: the IC50 was 3.2 nM.
The figure for `CNC(=O)c1c(-c2ccc(F)cc2)oc2cc(N(C)S(C)(=O)=O)c(-c3cc(Cl)cc(-c4nc5cccnc5o4)c3)cc12` [Example 229] is 3.7 nM; for `CNC(=O)c1c(-c2ccc(F)cc2)oc2cc(N(C)S(C)(=O)=O)c(-c3cc(-c4nc5cccnc5o4)ccc3Cl)cc12` [Example 230] it is 8.3 nM; for `CNC(=O)c1c(-c2ccc(F)cc2)oc2cc(N(C)S(C)(=O)=O)c(-c3ccc(OC(F)(F)F)c(-c4nc5cccnc5o4)c3)cc12` [Example 231] it is 6.6 nM.
For `CNC(=O)c1c(-c2ccc(F)cc2)oc2cc(N(C)S(C)(=O)=O)c(-c3cc(F)c(OC)c(-c4nc5ncccc5o4)c3)cc12` [Example 232], the IC50 is 2.4 nM.
The value for `CNC(=O)c1c(-c2ccc(F)cc2)oc2cc(N(C)S(C)(=O)=O)c(-c3cc(F)c(OC)c(-c4nc5cccnc5o4)c3)cc12` [Example 233] was 2.9 nM.
As to `CNC(=O)c1c(-c2ccc(F)cc2)oc2cc(N(C)S(C)(=O)=O)c(-c3cc(OC)c(OC)c(-c4nc5ncccc5o4)c3)cc12` [Example 234], the IC50 worked out at 2.7 nM.
The figure for `CNC(=O)c1c(-c2ccc(F)cc2)oc2cc(N(C)S(C)(=O)=O)c(-c3cc(OC)c(OC)c(-c4nc5cccnc5o4)c3)cc12` [Example 235] is 4 nM; for `CNC(=O)c1c(-c2ccc(F)cc2)oc2cc(N(C)S(C)(=O)=O)c(-c3ccc(OCCO)c(-c4nc5ncccc5o4)c3)cc12` [Example 237] it is 2.6 nM; for `CNC(=O)c1c(-c2ccc(F)cc2)oc2cc(N(C)S(C)(=O)=O)c(-c3ccc(OC)c(-c4nc5ncccc5o4)c3)cc12` [Example 238] it is 2.9 nM.
The figure for `CNC(=O)c1c(-c2ccc(F)cc2)oc2cc(N(C)S(C)(=O)=O)c(-c3ccc(OC)c(-c4nc5ncc(Cl)cc5o4)c3)cc12` [Example 239] is 2.6 nM.
On to `CNC(=O)c1c(-c2ccc(F)cc2)oc2cc(N(C)S(C)(=O)=O)c(-c3cccc(-c4nc5nccnc5o4)c3)cc12` [Example 240], for which the IC50 was determined as 1.9 nM.
